# In article PMC10295897, “A Novel MDM2-Binding Chalcone Induces Apoptosis of Oral Squamous Cell Carcinoma” (Biomedicines, 2023):
# Key:
# HT29 (adenocarcinoma) = test: MTT cell viability assay, HT29; type: cell-based
# Procedure: (§1) The viability of SCC cell lines, HT-29, HCT-116, HEP2G and primary human fibroblast cells was evaluated using the MTT assay as in [26]. Briefly, the cells were grown in duplicates in 96-well plates (5 × 10^3 cells/well) until confluence. Then, the medium was removed, fresh medium was added, and the cells were returned to the incubator in the presence of different compounds. DMSO at the same concentrations was used as a 100% cell viability control. After 48 h, the cells were incubated with 5 mg/mL MTT reagent (3-(4,5-dimethyl-2-thiazolyl)-2,5-diphenyl-2-H-tetrazolium bromide) (Sigma-Aldrich Co., St. Louis, MO, USA) for 3.5 h. After that, formazan crystals were dissolved in MTT solvent solution (DMSO/methanol 1:1 v/v), and the absorbance at 560 nm was evaluated using an EPOCH microplate spectrophotometer (BioTek Instruments, Winooski, VT, USA) with the background absorbance at 670 nm subtracted. Each of the six compounds was tested at six or seven different concentrations, ranging from 0.3 µM to 200 µM in cancer cell lines (SCC-4, SCC-9 and SCC-25) and 0.3 µM to 200 µM in primary normal human gingival fibroblasts. Controls (carboplatin, nutlin 3a) were tested at six or seven different concentrations ranging from 0.05 µM to 1000 µM in cancer cells and normal cells, depending on the compound.
# (§2) The data are presented as means ± SD. IC values for the MTT assays were obtained by nonlinear regression using the […] 5.0 program (Intuitive Software for Science, San Diego, CA, USA) from at least three independent experiments. A dose–response (inhibitor) vs. response curve using the least squares method was used to determine the IC50, SD, and R^2 of the data. The selectivity index was calculated as SI = IC50 of the compound in normal oral fibroblast cells/IC50 of the same compound for each cancer cell line (SCC-4, SCC-9, SCC-25, HCT-116, HT29 and HEP2G), and the mean was calculated when indicated.
# Hemolysis assay = type: cell-based; settings: human erythrocytes; vs Triton X-100 = 100%; 300 µM (method) / 500 µM (Figure 2)
# Procedure: To determine the surfactant power of substances in biological membranes, a hemolysis assay was performed using human blood approved by the Research Ethics Committee of Universidade Federal Fluminense (CAAE: 43134721.4.0000.5626). Erythrocytes were collected by centrifugation at 1500 rpm for 15 min, washed with PBS (phosphate-buffered saline) supplemented with 10 mM glucose, and counted in an automatic cell counter (Thermo Fisher, Waltham, MA, USA). Erythrocytes were then plated in 96-well plates at a concentration of 4 × 10^8 cells/well in triplicates, and 10 µL of compounds was added at a final concentration of 300 µM in PBS with glucose (final volume 100 µL). In total, 10 µL of PBS was used as a negative control and 10 µL of PBS with 0.1% Triton X-100 as a positive control. Data reading was performed with EPOCH (BioTek Instruments, Winooski, VT, USA) at an absorbance of 540 nm, and the statistical data were generated using the […] Prism 5.0 program (Intuitive Software for Science, San Diego, CA, USA).
# SCC4 cells = test: MTT cell viability assay, SCC4 cells; type: cell-based, human
# Procedure: Human SCC-4, SCC-9, and SCC-25 cells derived from a human oral tongue SCC (squamous cell carcinoma) were obtained from the ATCC (CRL-1624, CRL-1629, and CRL-1628, respectively) and maintained in 1:1 DMEM/F12 (Dulbecco’s modified Eagle medium and Ham’s F12 medium; Gibco (Thermo Fisher, Waltham, MA, USA)) supplemented with 10% (v/v) FBS (fetal bovine serum; Invitrogen, Thermo Fisher, Waltham, MA, USA) and 400 ng/mL hydrocortisone (Sigma-Aldrich Co., St. Louis, MO, USA). Primary normal human gingival fibroblasts were obtained from the ATCC (PCS-201-018; HGF) and maintained in DMEM supplemented with 10% (v/v) FBS and were used in a maximum of six passages. The cells were grown in a humidified environment containing 5% CO2 at 37 °C. For all biological experiments, the compounds and control nutlin 3a were solubilized in 100% DMSO (all Sigma-Aldrich) to a final concentration of 10 mM. Carboplatin stock was prepared in water (Fauldcarbo®; LibbsFarmacêutica, São Paulo, SP, Brazil) and was used as a standard anticancer compound.
# as §1, §2
# SCC9 cells = test: Annexin V-FITC/PI apoptosis flow cytometry; type: cell-based, human; settings: SCC9, 2 × IC50, 48 h
# Procedure: Cells of the SCC9 cell line were plated in 6-well plates (5 × 10^5 cells/well), trypsinized 48 h after treatment, labeled using the Annexin V-FITC Apoptosis Detection Kit according to the manufacturer’s protocol (#BMS500FI/300, Invitrogen), and analyzed by FACScalibur flow cytometry as in [35]. Furthermore, 5 × 10^4 SCC-9 cells were plated in a 24-well plate containing 1 mL of DMEM/F12 with 10% FBS per well. CellEvent™ Caspase-3/7 Reagent (#R37111, Invitrogen) was diluted in a culture medium according to the manufacturer’s instructions. […] The cells were analyzed by flow cytometry after 48 h of treatment.
structure (smiles),measurement,setting,value
"Cc1cccc(C)c1-n1cc(/C=C/C(=O)c2ccccc2N)nn1 [1f, (E)-1-(2-Aminophenyl)-3-(1-(2,6-dimethylphenyl)-1H-1,2,3-triazol-4-yl)prop-2-en-1-one]",IC50,"HT29 (adenocarcinoma); Homo sapiens, HT-29, 48 h, MTT",3.92 µM
same,HT29 S.I.,HT29 (adenocarcinoma); IC50 HGF / IC50 HT29,7.55
same,hemolysis at 300 µM,Hemolysis assay,< 2%
same,IC50,"SCC4 cells; Homo sapiens, SCC-4, 48 h, MTT",4.73 µM
same,SCC4 S.I.,SCC4 cells; selective index = IC50 HGF / IC50 SCC4,6.25
same,phosphatidylserine exposure,SCC9 cells,43.0%
